From patent publication US20100210506A1, “INTRANASAL ADMINISTRATION OF RAPID ACTING INSULIN” (MDRNA, INC., priority 2005, published 2010)
Entries after “also recorded” stand apart in the source; their conditions may differ.

Key:
[1] = test system: S. aureus, A. niger, P. auerignosa; assay: Antimicrobial Effectiveness Testing, U.S. Pharmacopeial (USP <51>); assay type: cell-based; settings: USP and EP AET, insulin nasal spray formulations at neutral pH
Method: AET Study 1 was conducted to determine the Antimicrobial Effectiveness (AET) of an insulin nasal spray placebo with methylparaben sodium, propylparaben sodium, and propylene glycol. Additionally, AET Study 1 examined the AET of increased EDTA alone. Approximately 120 mL of each formulation was manufactured and tested in duplicate (n=2 analyses per sample).
(§1) The AET methods used were in compliance with the requirements for U.S. Pharmacopeial (USP) and European Pharmacopeial (EP) AET and are described in Tables 34 and 35, respectively. The formulations were also tested for pH (per SOP 403), appearance (visual), and osmolality (per SOP 4000).

[2] = pH, appearance (visual) and osmolality of AET formulations; assay type: physicochemical; settings: preservative within insulin nasal spray formulation
Method: as §1

| SMILES | antimicrobial effectiveness as preservative [1] | compatibility with insulin [2] | compatibility with insulin ([2]; listed as benzakonium chloride) | antimicrobial effectiveness as preservative ([1]; listed as benzakonium chloride) | antimicrobial effectiveness as preservative ([1]; listed as benzyl alcohol) |
| --- | --- | --- | --- | --- | --- |
| Cc1cccc(O)c1 [m-cresol] | not effective preservatives | – | – | – | – |
| CCCCCCCCCCCCC[N+](C)(C)Cc1ccccc1 [Benzalkonium chloride] | excellent preservative | incompatible with insulin | incompatible with insulin (caused precipitation) | best antimicrobial performance | – |
| O=C([O-])c1ccccc1.[Na+] [sodium benzoate] | not effective preservatives at neutral pH | – | – | – | – |
| OCc1ccccc1 [Benzyl alcohol] | not effective preservatives at neutral pH; also recorded: ineffective as antimicrobial reagents | – | – | – | not effective preservatives |
| CCO [Ethanol] | antimicribal activity similar to that of methylparaben sodium/propylparaben sodium/propylene glycol; also recorded: not an effective preservative (at 1%) | – | – | – | – |
